Measurements as given in ChEMBL document CHEMBL2385072, “Development of oleanane-type triterpenes as a new class of HCV entry inhibitors” (J Med Chem, 2013).

Tests used:
Conditions in all cases: HEK-293T
[1] = test system: Vesicular stomatitis virus; assay: Antiviral activity against pseudo VSV infected in human 293T cells assessed as inhibition of vesicular stromatis G protein pseudo particles entry at 1 uM after 72 hrs by luciferase reporter gene assay; format: functional
Hepatitis C virus [2] = assay: Antiviral activity against pseudo HCV infected in human 293T cells assessed as inhibition of HCV pseudo particles entry at 5 uM after 72 hrs by luciferase reporter gene assay; format: functional, Hepacivirus hominis
[3] = test system: Vesicular stomatitis virus; assay: Antiviral activity against pseudo VSV infected in human 293T cells assessed as inhibition of vesicular stromatis G protein pseudo particles entry at 5 uM after 72 hrs by luciferase reporter gene assay; format: functional
Hepatitis C virus [4] = assay: Antiviral activity against pseudo HCV infected in human 293T cells assessed as inhibition of HCV pseudo particles entry at 1 uM after 72 hrs by luciferase reporter gene assay; format: functional, Hepacivirus hominis

SMILES	inhibition at 1 µM [1]	inhibition at 5 µM (Hepatitis C virus [2])	inhibition at 5 µM [3]	inhibition at 1 µM (Hepatitis C virus [4])
CC1(C)CC[C@]2(C(=O)O[C@@H]3O[C@H](CO)[C@@H](O[C@H]4O[C@H](CO)[C@@H](O)[C@H](O)[C@H]4O)[C@H](O)[C@H]3O)[C@H](O)C[C@]3(C)C(=CC[C@@H]4[C@@]5(C)CC[C@H](O)C(C)(C)[C@@H]5CC[C@]43C)[C@@H]2C1	21.6%	43.7%	21.9%	36.4%
CC(=O)OC[C@H]1O[C@@H](n2cc(CNC(=O)[C@]34CCC(C)(C)C[C@H]3C3=CC[C@@H]5[C@@]6(C)CC[C@H](O)C(C)(C)[C@@H]6CC[C@@]5(C)[C@]3(C)C[C@H]4O)nn2)[C@H](OC(C)=O)[C@@H](OC(C)=O)[C@@H]1O[C@@H]1O[C@H](COC(C)=O)[C@@H](OC(C)=O)[C@H](OC(C)=O)[C@H]1OC(C)=O	36.8%	64.8%	38.8%	11.9%
CC(=O)OC[C@H]1O[C@@H](O[C@H]2[C@H](OC(C)=O)[C@@H](OC(C)=O)[C@H](n3cc(CNC(=O)[C@]45CCC(C)(C)C[C@H]4C4=CC[C@@H]6[C@@]7(C)CC[C@H](O)C(C)(C)[C@@H]7CC[C@@]6(C)[C@]4(C)C[C@H]5O)nn3)O[C@@H]2COC(C)=O)[C@H](OC(C)=O)[C@@H](OC(C)=O)[C@H]1OC(C)=O	39%	71.8%	32.1%	24.6%
CC1(C)CC[C@]2(C(=O)NCc3cn(CCNC(=O)CCCC[C@@H]4SC[C@@H]5NC(=O)N[C@@H]54)nn3)[C@H](O)C[C@]3(C)C(=CC[C@@H]4[C@@]5(C)CC[C@H](O)C(C)(C)[C@@H]5CC[C@]43C)[C@@H]2C1	10.3%	76.7%	12%	34.2%
CC1(C)CC[C@]2(C(=O)NCc3cn([C@@H]4O[C@H](CO)[C@@H](O[C@@H]5O[C@H](CO)[C@@H](O)[C@H](O)[C@H]5O)[C@H](O)[C@H]4O)nn3)[C@H](O)C[C@]3(C)C(=CC[C@@H]4[C@@]5(C)CC[C@H](O)C(C)(C)[C@@H]5CC[C@]43C)[C@@H]2C1	26.6%	11.8%	50.5%	15.2%
COC(=O)[C@]12CCC(C)(C)C[C@H]1C1=CC[C@@H]3[C@@]4(C)CC[C@H](OS(=O)(=O)c5ccc(C)cc5)C(C)(C)[C@@H]4CC[C@@]3(C)[C@]1(C)C[C@H]2O	38.3%	16.4%	39.3%	12.3%
CC(=O)OC[C@H]1O[C@@H](n2cc(CNC(=O)[C@]34CCC(C)(C)C[C@H]3C3=CC[C@@H]5[C@@]6(C)CC[C@H](O)C(C)(C)[C@@H]6CC[C@@]5(C)[C@]3(C)C[C@H]4O)nn2)[C@H](OC(C)=O)[C@@H](OC(C)=O)[C@@H]1OC(C)=O	-9.1%	89.7%	12.5%	20.3%
C[C@H]1O[C@@H](n2cc(CNC(=O)[C@]34CCC(C)(C)C[C@H]3C3=CC[C@@H]5[C@@]6(C)CC[C@H](O)C(C)(C)[C@@H]6CC[C@@]5(C)[C@]3(C)C[C@H]4O)nn2)[C@@H](O)[C@@H](O)[C@@H]1O	7.7%	67%	13.9%	32%
CC1(C)CC[C@]2(C(=O)O[C@@H]3OC[C@@H](O)[C@H](O)[C@H]3O)[C@H](O)C[C@]3(C)C(=CC[C@@H]4[C@@]5(C)CC[C@H](O)C(C)(C)[C@@H]5CC[C@]43C)[C@@H]2C1	36.5%	77.7%	13%	33.8%
CC1(C)CC[C@]2(C(=O)NCc3cn([C@@H]4OC[C@@H](O)[C@H](O)[C@H]4O)nn3)[C@H](O)C[C@]3(C)C(=CC[C@@H]4[C@@]5(C)CC[C@H](O)C(C)(C)[C@@H]5CC[C@]43C)[C@@H]2C1	34.4%	27.8%	27%	14.8%
CC1(C)CC[C@]2(C(=O)NCc3cn([C@@H]4O[C@H](CO)[C@@H](O[C@H]5O[C@H](CO)[C@@H](O)[C@H](O)[C@H]5O)[C@H](O)[C@H]4O)nn3)[C@H](O)C[C@]3(C)C(=CC[C@@H]4[C@@]5(C)CC[C@H](O)C(C)(C)[C@@H]5CC[C@]43C)[C@@H]2C1	25.8%	29.7%	48.1%	9.3%
COC(=O)[C@@]12C=C[C@]3(C)C(=CC[C@@H]4[C@@]5(C)CC[C@H](O)C(C)(C)[C@@H]5CC[C@]43C)[C@@H]1CC(C)(C)CC2	15.2%	27.9%	18.8%	12.3%
COC(=O)[C@]12CCC(C)(C)C[C@H]1C1=CC[C@@H]3[C@@]4(C)CC[C@H](OC)C(C)(C)[C@@H]4CC[C@@]3(C)[C@]1(C)C[C@H]2O	9.9%		30.1%	-14%
